Laboratory results as given in ChEMBL document CHEMBL1148509, “Design and semisynthesis of novel fredericamycin A derivatives with an improved antitumor profile” (Bioorg Med Chem Lett, 2006).

Key:
[1] = tested on: Panel (10 carcinoma cell lines); test: Inhibition of cell viability of panel of 10 cell lines (LCL H460, MACL MCF7, LXFL 529L, LXFA 629L, MEXF 462NL, MEXF 514L, MAXF 401NL, RXF 944L, RXF 486L, UXF 1138L) at 1 ug/mL; type: functional; conditions: Homo sapiens
[2] = tested on: Panel (12 tumour cell lines); test: Cytotoxicity against panel of 12 cell lines (LCL H460, MACL MCF7, LXFL 529L, LXFA 629L, MEXF 462NL, MEXF 514L, MAXF 401NL, RXF 944L, RXF 486L, UXF 1138L, PR PC3M, PRCL 22RV1); type: functional; conditions: Homo sapiens
[3] = tested on: Mus musculus; test: Toxicity in nude mouse xenografted with human UXF1138 at 3 mg/kg/day; type: organism-based; conditions: in vivo
[4] = tested on: UXF1138; test: Antitumor activity against human UXF1138 cell line xenografted in nude mouse at 0.15 mg/kg/day, ip after 7 days; conditions: route intraperitoneal
[5] = tested on: Mus musculus; test: Toxicity in nude mouse xenografted with human UXF1138 at 1 mg/kg/day; type: organism-based; conditions: in vivo
[6] = tested on: Mus musculus; test: Toxicity in nude mouse xenografted with human UXF1138 at 0.3 mg/kg/day; type: organism-based; conditions: in vivo
[7] = tested on: Mus musculus; test: Decrease in body weight of nude mouse xenografted with human UXF1138 at 0.15 mg/kg/day, ip after 7 days; type: functional; parameters: scale not given: the % may be the effect or the level left; conditions: route intraperitoneal

| Compound | inhibition at 1 µg/mL [1] [%] | IC70 [2] [µM] | also measured |
| --- | --- | --- | --- |
| COC1=CC(=O)c2c(O)c3c(c(O)c2C1=O)C(=O)[C@]1(CCc2c1c(O)c1c(O)nc(/C=N/OCc4ccccc4)cc1c2Br)C3=O | 91 | 0.05 | – |
| C/C=C/C=C/c1cc2c(Br)c3c(c(O)c2c(O)n1)[C@@]1(CC3)C(=O)C2=C(C(=O)c3c(O)c(NC4CC4)cc(O)c3C2=O)C1=O | 97 | 0.096 | – |
| C/C=C/C=C/c1cc2cc3c(c(O)c2c(O)n1)[C@@]1(CC3)C(=O)C2=C(C(=O)c3c(O)c(N(C)C)cc(O)c3C2=O)C1=O | 96 | 0.306 | – |
| COC1=CC(=O)c2c(O)c3c(c(O)c2C1=O)C(=O)[C@]1(CCc2c1c(O)c1c(O)nc(/C=C/c4csc(C)n4)cc1c2Br)C3=O | 85 | 0.124 | – |
| C/C=C/C=C/c1cc2c(I)c3c(c(O)c2c(O)n1)[C@@]1(CC3)C(=O)c2c(O)c3c(c(O)c2C1=O)C(=O)C(OC)=CC3=O | 93 | 0.011 | Activity [3]: Toxic; Activity [4]: 51%; Activity [5]: Toxic; Activity [6]: Non-toxic; Activity [7]: -3.1% |
| COC1=CC(=O)c2c(O)c3c(c(O)c2C1=O)C(=O)[C@]1(CCc2cc4cc(C=O)nc(O)c4c(O)c21)C3=O | 31 | – | – |
| COC1=CC(=O)c2c(O)c3c(c(O)c2C1=O)C(=O)[C@]1(CCc2cc4cc(C(O)C(O)C(O)C(C)O)nc(O)c4c(O)c21)C3=O (stereo partly drawn) | 85 | 0.186 | – |
| C/C=C/C=C/c1cc2cc3c(c(O)c2c(O)n1)[C@@]1(CC3)C(=O)C2=C(C(=O)c3c(O)c(NC(C)C)cc(O)c3C2=O)C1=O | 91 | 0.634 | – |
| C/C=C/C=C/c1cc2c(Br)c3c(c(O)c2c(O)n1)[C@@]1(CC3)C(=O)C2=C(C(=O)c3c(O)c(NCCCC)cc(O)c3C2=O)C1=O | 94 | 0.302 | – |
| C/C=C/C=C/c1cc2cc3c(c(O)c2c(=O)[nH]1)[C@@]1(CC3)C(=O)c2c(O)c3c(c(O)c2C1=O)C(=O)C(OC)=CC3=O [FDM A] | 82 | 0.517 | – |
| CC[C@@]1(O)C(=O)OCc2c1cc1n(c2=O)Cc2cc3ccccc3nc2-1 [CAMPTOTHECIN] | – | 0.0086 | – |
| COC1=CC(=O)c2c(O)c3c(c(O)c2C1=O)C(=O)[C@]1(CCc2c1c(O)c1c(O)nc(/C=C/c4csc(NC(C)=O)n4)cc1c2Br)C3=O | 83 | 0.512 | – |
| C/C=C/C=C/c1cc2c(F)c3c(c(O)c2c(O)n1)[C@@]1(CC3)C(=O)c2c(O)c3c(c(O)c2C1=O)C(=O)C(OC)=CC3=O | 91 | 0.02 | – |
| COC1=CC(=O)c2c(O)c3c(c(O)c2C1=O)C(=O)[C@]1(CCc2c1c(O)c1c(O)nc(C=O)cc1c2Br)C3=O | 42 | – | – |
| COC1=CC(=O)c2c(O)c3c(c(O)c2C1=O)C(=O)[C@]1(CCc2c1c(O)c1c(O)nc(/C=N/OC(C)C)cc1c2Br)C3=O | 91 | 0.074 | – |
| COC1=CC(=O)c2c(O)c3c(c(O)c2C1=O)C(=O)[C@]1(CCc2c1c(O)c1c(O)nc(/C=N/OCCN4CCOCC4)cc1c2Br)C3=O | 88 | 0.101 | – |
| C/C=C/C=C/c1cc2cc3c(c(O)c2c(O)n1)[C@@]1(CC3)C(=O)C2=C(C(=O)c3c(O)c(OCCN(C)C)cc(O)c3C2=O)C1=O | 94 | 1.02 | – |
| C/C=C/C=C/c1cc2c(Br)c3c(c(O)c2c(O)n1)[C@@]1(CC3)C(=O)c2c(O)c3c(c(O)c2C1=O)C(=O)C(OCC)=CC3=O | 97 | 0.16 | – |
| COC1=CC(=O)c2c(O)c3c(c(O)c2C1=O)C(=O)[C@]1(CCc2c1c(O)c1c(O)nc(/C=N/N4CCN(C)CC4)cc1c2Br)C3=O | 73 | 0.658 | – |
| C/C=C/C=C/c1cc2c(Cl)c3c(c(O)c2c(O)n1)[C@@]1(CC3)C(=O)c2c(O)c3c(c(O)c2C1=O)C(=O)C(OC)=CC3=O | 91 | 0.014 | – |
| COc1cccc2c1C(=O)c1c(O)c3c(c(O)c1C2=O)C[C@@](O)(C(=O)CO)C[C@@H]3O[C@H]1C[C@H](N)[C@H](O)[C@H](C)O1 [DOXORUBICIN] | 91 | 0.039 | – |
| CC(=O)O[C@H]1C(=O)[C@@]2(C)[C@H]([C@H](OC(=O)c3ccccc3)[C@]3(O)C[C@H](OC(=O)[C@H](O)[C@@H](NC(=O)c4ccccc4)c4ccccc4)C(C)=C1C3(C)C)[C@]1(OC(C)=O)CO[C@@H]1C[C@@H]2O [PACLITAXEL] | – | 0.0007 | – |
| COC1=CC(=O)c2c(O)c3c(c(O)c2C1=O)C(=O)[C@]1(CCc2c1c(O)c1c(O)nc(/C=C/c4csc(N)n4)cc1c2Br)C3=O | 77 | 0.612 | – |
| C/C=C/C=C/c1cc2cc3c(c(O)c2c(O)n1)[C@@]1(CC3)C(=O)C2=C(C(=O)c3c(O)c(N4CCOCC4)cc(O)c3C2=O)C1=O | 98 | 0.077 | – |
| COC1=CC(=O)c2c(O)c3c(c(O)c2C1=O)C(=O)[C@]1(CCc2c1c(O)c1c(O)nc(C=O)cc1c2Cl)C3=O | 25 | – | – |
| COC1=CC(=O)c2c(O)c3c(c(O)c2C1=O)C(=O)[C@]1(CCc2cc4cc(/C=C/C(C)=O)nc(O)c4c(O)c21)C3=O | 59 | – | – |
| C/C=C/C=C/c1cc2c(Br)c3c(c(O)c2c(O)n1)[C@@]1(CC3)C(=O)c2c(O)c3c(c(O)c2C1=O)C(=O)C(OC)=CC3=O | 92 | 0.0081 | – |
